Measured values taken from ChEMBL document CHEMBL5143572, “Synthesis and evaluation of new potential anti-pseudo-allergic agents” (Bioorg Med Chem Lett, 2022).
Calls of active or inactive are those of the source. No cut-off for these calls is given here.

Experiments:
[1] = system: LAD2; assay: Antiallergic activity in human LAD2 cells assessed as inhibition of C48/80-induced beta-hexosaminidase release; format: functional, cell-based; details: dose 0.1-100 µM
[2] = system: LAD2; assay: Antiallergic activity in human LAD2 cells assessed as inhibition of C48/80-induced histamine release; format: functional, cell-based; details: dose 0.1-100 µM, DDE = dose-dependent effect
[3] = target: T1, Mas-related G-protein coupled receptor member X2 (Homo sapiens) (UniProt Q96LB1); assay: Antagonist activity at MRGPRX2 (unknown origin) expressed in HEK293 cells assessed as inhibition of C48/80-induced Ca2+- mobilization; format: functional, cell-based; details: filed as antagonist, dose 0.1-100 µM, DDE = dose-dependent effect
T1 sequence (whole entry): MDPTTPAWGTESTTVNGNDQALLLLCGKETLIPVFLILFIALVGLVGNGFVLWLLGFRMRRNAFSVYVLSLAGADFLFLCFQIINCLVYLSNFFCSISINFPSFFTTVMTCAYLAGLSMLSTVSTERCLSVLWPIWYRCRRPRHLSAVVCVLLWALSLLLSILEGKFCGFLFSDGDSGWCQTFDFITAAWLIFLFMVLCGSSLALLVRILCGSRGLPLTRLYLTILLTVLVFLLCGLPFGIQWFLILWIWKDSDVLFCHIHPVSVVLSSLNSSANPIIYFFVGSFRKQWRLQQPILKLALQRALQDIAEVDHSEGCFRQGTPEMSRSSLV

[4] = system: LAD2; assay: Cytotoxicity against human LAD2 cells at 0.1 to 100 uM measured after 24 hrs; format: toxicity, cell-based; details: lad2, 24 h, dose 0.1-100 µM

Row | Compound | inhibition [1] | inhibition [2] | inhibition [3] | inhibition ([1]; DDE = dose-dependent effect) | Activity [4]
1 | FC(F)(F)c1ccc(/C=C/c2nc(COc3ccc(CCCCn4ccnn4)cc3)co2)cc1 | Active | – | – | – | –
2 | O=C(Nc1ccc(C(F)(F)F)cc1)Nc1nc(COc2ccc(CCCCn3ccnn3)cc2)co1 | – | Dde | Dde | Dde | Non-Toxic
3 | O=C(Nc1ccc(Sc2ccc3c(=O)[nH]cnc3c2)cc1)Nc1ccc(Cl)c(C(F)(F)F)c1 | Active | – | – | – | –
4 | O=C(Nc1ccc(Cl)c(C(F)(F)F)c1)Nc1nc(COc2ccc(CCCCn3ccnn3)cc2)co1 | – | Dde | Dde | Dde | Non-Toxic
